What all share (assay type): biochemical
One assay deals with T1, SIK1 (Homo sapiens, UniProt P57059).
T1 construct: purchased Carna Biosciences 02-131
The assay is described as follows: ADP-Glo kinase assay, SIK1. An outline of the steps: (§1)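 Each SIK isoform is incubated with substrate and ATP for 2 h at room temperature, after which residual ATP is depleted and the ADP formed is quantified by luminescence.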

Another assay deals with T2, SIK2 (Homo sapiens, UniProt Q9H0K1).
T2 construct: purchased ThermoFisher Scientific PV4792
Put plainly: ADP-Glo kinase assay, SIK2. The essentials:
as §1

Another assay concerns the target T3, SIK3 (Homo sapiens, UniProt Q9Y2K2).
T3 construct: purchased SignalChem S12-11G-100
The assay is described as follows: ADP-Glo kinase assay, SIK3. An outline of the steps:
as §1
On the technique in general: ADP-Glo turns the ADP formed in a reaction into a luminescent signal.

For orientation: IC50 means the midpoint of a concentration-inhibition curve. Read a low IC50 as greater potency in that assay.

T1 sequence (P57059 whole entry): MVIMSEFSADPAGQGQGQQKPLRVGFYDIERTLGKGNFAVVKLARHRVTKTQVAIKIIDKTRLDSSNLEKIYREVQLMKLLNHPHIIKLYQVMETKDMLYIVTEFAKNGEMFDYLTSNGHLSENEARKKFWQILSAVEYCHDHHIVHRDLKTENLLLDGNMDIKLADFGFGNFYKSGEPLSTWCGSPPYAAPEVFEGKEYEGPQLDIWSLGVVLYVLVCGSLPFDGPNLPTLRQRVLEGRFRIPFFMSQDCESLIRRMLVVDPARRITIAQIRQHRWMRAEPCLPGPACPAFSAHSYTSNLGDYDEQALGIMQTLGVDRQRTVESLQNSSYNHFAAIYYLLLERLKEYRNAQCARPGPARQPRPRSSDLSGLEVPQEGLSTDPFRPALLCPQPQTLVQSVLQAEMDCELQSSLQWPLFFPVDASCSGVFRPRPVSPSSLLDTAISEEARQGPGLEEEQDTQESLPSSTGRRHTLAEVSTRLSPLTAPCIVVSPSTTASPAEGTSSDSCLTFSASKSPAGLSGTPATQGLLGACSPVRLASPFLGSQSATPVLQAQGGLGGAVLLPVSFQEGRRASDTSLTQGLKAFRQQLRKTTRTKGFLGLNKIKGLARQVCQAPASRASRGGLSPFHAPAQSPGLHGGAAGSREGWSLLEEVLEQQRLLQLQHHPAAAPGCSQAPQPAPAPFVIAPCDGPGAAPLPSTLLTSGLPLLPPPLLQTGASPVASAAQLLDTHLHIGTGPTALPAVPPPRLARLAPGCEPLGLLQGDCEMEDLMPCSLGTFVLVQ
T2 sequence (Q9H0K1 whole entry): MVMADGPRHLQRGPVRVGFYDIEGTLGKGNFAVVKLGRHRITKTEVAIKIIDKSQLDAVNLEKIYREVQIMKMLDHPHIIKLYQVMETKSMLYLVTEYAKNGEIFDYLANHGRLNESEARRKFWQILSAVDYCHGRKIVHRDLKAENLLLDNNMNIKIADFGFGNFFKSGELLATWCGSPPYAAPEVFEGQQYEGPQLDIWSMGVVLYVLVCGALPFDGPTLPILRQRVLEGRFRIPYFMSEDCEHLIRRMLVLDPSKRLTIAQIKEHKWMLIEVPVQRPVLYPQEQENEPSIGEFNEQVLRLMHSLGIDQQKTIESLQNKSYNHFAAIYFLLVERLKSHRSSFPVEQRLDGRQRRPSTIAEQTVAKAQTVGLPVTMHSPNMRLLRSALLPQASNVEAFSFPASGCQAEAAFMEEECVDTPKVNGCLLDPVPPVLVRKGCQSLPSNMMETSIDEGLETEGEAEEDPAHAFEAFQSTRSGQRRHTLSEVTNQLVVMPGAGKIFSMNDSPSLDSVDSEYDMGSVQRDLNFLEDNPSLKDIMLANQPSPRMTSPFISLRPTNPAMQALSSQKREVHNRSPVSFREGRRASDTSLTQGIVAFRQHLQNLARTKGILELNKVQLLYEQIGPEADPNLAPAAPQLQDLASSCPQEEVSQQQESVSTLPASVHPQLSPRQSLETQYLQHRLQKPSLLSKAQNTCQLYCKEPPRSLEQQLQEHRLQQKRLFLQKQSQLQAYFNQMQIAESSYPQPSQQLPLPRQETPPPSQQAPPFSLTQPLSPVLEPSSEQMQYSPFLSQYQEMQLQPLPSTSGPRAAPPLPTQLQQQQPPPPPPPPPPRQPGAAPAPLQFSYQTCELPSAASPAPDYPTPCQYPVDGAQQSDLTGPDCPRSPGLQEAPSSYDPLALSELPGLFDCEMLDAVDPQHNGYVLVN
T3 sequence (Q9Y2K2 59-365 limits assumed): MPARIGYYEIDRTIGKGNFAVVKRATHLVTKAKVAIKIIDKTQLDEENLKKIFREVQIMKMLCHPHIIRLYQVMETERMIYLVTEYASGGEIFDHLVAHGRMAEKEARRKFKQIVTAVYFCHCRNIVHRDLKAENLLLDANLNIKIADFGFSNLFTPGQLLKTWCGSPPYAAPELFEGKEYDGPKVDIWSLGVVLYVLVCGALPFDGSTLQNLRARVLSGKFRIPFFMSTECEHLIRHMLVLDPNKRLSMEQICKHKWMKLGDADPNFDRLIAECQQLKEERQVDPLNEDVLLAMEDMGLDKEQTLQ

Turning to `COc1cc(-c2cnc3cc(C4(C(=O)NCCO)CC4)ccn23)cc(OC(F)F)c1C(=O)NC1CC1` [Cpd 147, N-cyclopropyl-2-(difluoromethoxy)-4-[7-[1-(2-hydroxyethylcarbamoyl)cyclopropyl]imidazo[1,2-a]pyridin-3-yl]-6-methoxy-benzamide], the IC50 against SIK1 was more than 500 nM; against SIK2 it was more than 500 nM; on SIK3, 10 to 100 nM.

With `COc1cc(-c2cnc3cc(C4CCCNC4)ccn23)cc(OC(F)F)c1C(=O)NC1CC1` (stereo not drawn) [Cpd 65, N-cyclopropyl-2-(difluoromethoxy)-6-methoxy-4-[7-(3-piperidyl)imidazo[1,2-a]pyridin-3-yl]benzamide], the IC50 was more than 500 nM at SIK1, 10 to 100 nM on SIK2 and 0.01 to 10 nM on SIK3.

For `COc1cc(-c2cnn3cc(C4CCOCC4)ccc23)cc(OC(F)F)c1C(=O)NC1CC1` [Cpd 112, N-cyclopropyl-2-(difluoromethoxy)-6-methoxy-4-(6-tetrahydropyran-4-ylpyrazolo[1,5-a]pyridin-3-yl)benzamide], the IC50 is more than 500 nM on SIK1, 10 to 100 nM at SIK2 and 0.01 to 10 nM against SIK3.

Consider `COc1cc(-c2cnc3cc(C(C)(C)C(C)=O)ccn23)cc(OC)c1C(=O)NCC(F)(F)F` [Cpd 56, 4-[7-(1,1-dimethyl-2-oxo-propyl)imidazo[1,2-a]pyridin-3-yl]-2,6-dimethoxy-N-(2,2,2-trifluoroethyl)benzamide], for which the IC50 against SIK1 was more than 500 nM; against SIK2, more than 500 nM; against SIK3, 10 to 100 nM.

As to `COc1cc(-c2cnc3cc(C4CN(C(=O)OC(C)(C)C)C4)ccn23)cc(OC)c1C(=O)NCC(F)(F)F` [Cpd 58, tert-butyl 3-[3-[3,5-dimethoxy-4-(2,2,2-trifluoroethylcarbamoyl)phenyl]imidazo[1,2-a]pyridin-7-yl]azetidine-1-carboxylate], the figures for the IC50 against SIK1, at SIK2 and against SIK3 were 100 to 500 nM, 100 to 500 nM and 10 to 100 nM, respectively.

For the molecule `COc1cc(-c2cnc3cc(C4CN(C(=O)OC(C)(C)C)C4)c(F)cn23)cc(OC(F)F)c1C(=O)NC1CC1` [Cpd 158, tert-butyl 3-[3-[4-(cyclopropylcarbamoyl)-3-(difluoromethoxy)-5-methoxy-phenyl]-6-fluoro-imidazo[1,2-a]pyridin-7-yl]azetidine-1-carboxylate], the IC50 on SIK1 fell in the range of 100 to 500 nM; against SIK2 it was 100 to 500 nM; on SIK3, 10 to 100 nM.

For `COc1cc(-c2cnc3cc(C(C)(C)CN4CCCC4)ccn23)cc(OC(F)F)c1C(=O)NC1CC1` [Cpd 161, N-cyclopropyl-2-(difluoromethoxy)-4-[7-(1,1-dimethyl-2-pyrrolidin-1-yl-ethyl)imidazo[1,2-a]pyridin-3-yl]-6-methoxy-benzamide], the figures for the IC50 against SIK1, on SIK2 and on SIK3 were more than 500 nM, more than 500 nM and 10 to 100 nM, respectively.

On to `COc1cc(-c2cnc3cc(C(C)N4CC(F)(F)C4)ccn23)cc(OC(F)F)c1C(=O)NC1CC1` (stereo not drawn) [Cpd 156, N-cyclopropyl-4-[7-[1-(3,3-difluoroazetidin-1-yl)ethyl]imidazo[1,2-a]pyridin-3-yl]-2-(difluoromethoxy)-6-methoxy-benzamide], for which the IC50 at SIK1 was more than 500 nM; against SIK2, more than 500 nM; at SIK3, 10 to 100 nM.

Consider `CCCCOC(=O)NC(C)(C)c1ccc2c(-c3cc(OC)c(C(=O)N[C@@H]4C[C@@H]4F)c(OC(F)F)c3)cnn2c1` [Cpd 264, butyl N-[1-[3-[3-(difluoromethoxy)-4-[[(1R,2S)-2-fluorocyclopropyl]carbamoyl]-5-methoxy-phenyl]pyrazolo[1,5-a]pyridin-6-yl]-1-methyl-ethyl]carbamate], for which the figures for the IC50 on SIK1, against SIK2 and against SIK3 were more than 500 nM, more than 500 nM and 10 to 100 nM, respectively.

With `COc1cc(-c2cnc3cc(C(C)(C)C(O)C(C)C)ccn23)cc(OC(F)F)c1C(=O)NC1CC1` (stereo not drawn) [Cpd 202, N-cyclopropyl-2-(difluoromethoxy)-4-[7-(2-hydroxy-1,1,3-trimethyl-butyl)imidazo[1,2-a]pyridin-3-yl]-6-methoxy-benzamide], the IC50 is more than 500 nM on SIK1, more than 500 nM against SIK2 and 10 to 100 nM against SIK3.

In the case of `COCCCNC(=O)c1c(OC)cc(-c2cnc3cc(C(C)(C)C#N)ccn23)cc1OC(F)F` [Cpd 45, 4-[7-(1-cyano-1-methyl-ethyl)imidazo[1,2-a]pyridin-3-yl]-2-(difluoromethoxy)-6-methoxy-N-(3-methoxypropyl)benzamide], the IC50 at SIK1 is more than 500 nM; against SIK2, more than 500 nM; against SIK3, 100 to 500 nM.

With `COc1cc(-c2cnc3cc(C(C)N4CCCC4)ccn23)cc(OC(F)F)c1C(=O)NC1CC1` (stereo not drawn) [Cpd 153, N-cyclopropyl-2-(difluoromethoxy)-6-methoxy-4-[7-(1-pyrrolidin-1-ylethyl)imidazo[1,2-a]pyridin-3-yl]benzamide], the IC50 is more than 500 nM on SIK1, more than 500 nM against SIK2 and 10 to 100 nM on SIK3.

Take `COc1cc(-c2cnc3cc(C(C)(C)C#N)ccn23)cc(OC(F)F)c1C(=O)N(C)CC1CC1` [Cpd 82, 4-[7-(1-cyano-1-methyl-ethyl)imidazo[1,2-a]pyridin-3-yl]-N-(cyclopropylmethyl)-2-(difluoromethoxy)-6-methoxy-N-methyl-benzamide]: the IC50 against SIK1, on SIK2 and against SIK3 was more than 500 nM in each case.

For `COc1cc(-c2cnc3cc(C4(C(=O)O)CC4)ccn23)cc(OC(F)F)c1C(=O)NC1CC1` [Cpd 114, 1-[3-[4-(cyclopropylcarbamoyl)-3-(difluoromethoxy)-5-methoxy-phenyl]imidazo[1,2-a]pyridin-7-yl]cyclopropanecarboxylic acid], the values for the IC50 against SIK1, at SIK2 and at SIK3 were more than 500 nM, more than 500 nM and 10 to 100 nM, respectively.

In the case of `COc1cc(-c2cnc3cc(C(C)(C)C#N)ccn23)cc(OC(F)F)c1C(=O)NC1CS(=O)(=O)C1` [Cpd 73, 4-[7-(1-cyano-1-methyl-ethyl)imidazo[1,2-a]pyridin-3-yl]-2-(difluoromethoxy)-N-(1,1-dioxothietan-3-yl)-6-methoxy-benzamide], the IC50 is more than 500 nM against SIK1, more than 500 nM on SIK2 and 10 to 100 nM on SIK3.

On to `COc1cc(-c2cnc3cc(C(C)(C)C#N)ccn23)cc(OC(F)F)c1C(=O)NCCCO` [Cpd 44, 4-[7-(1-cyano-1-methyl-ethyl)imidazo[1,2-a]pyridin-3-yl]-2-(difluoromethoxy)-N-(3-hydroxypropyl)-6-methoxy-benzamide], for which the IC50 was more than 500 nM against SIK1, more than 500 nM on SIK2 and 10 to 100 nM at SIK3.

With `COc1cc(-c2cnn3cc(C(C)(C)c4noc(C)n4)ccc23)cc(OC(F)F)c1C(=O)NC1CC1` [Cpd 247, N-cyclopropyl-2-(difluoromethoxy)-6-methoxy-4-[6-[1-methyl-1-(5-methyl-1,2,4-oxadiazol-3-yl)ethyl]pyrazolo[1,5-a]pyridin-3-yl]benzamide], the values for the IC50 at SIK1, at SIK2 and on SIK3 were more than 500 nM, more than 500 nM and 10 to 100 nM, respectively.

Turning to `COc1cc(-c2cnn3cc(C(C)(C)C#N)ccc23)cc(F)c1C(=O)NC1CC1` [Cpd 252, 4-[6-(1-cyano-1-methyl-ethyl)pyrazolo[1,5-a]pyridin-3-yl]-N-cyclopropyl-2-fluoro-6-methoxy-benzamide], the IC50 on SIK1 is more than 500 nM; against SIK2, more than 500 nM; on SIK3, 100 to 500 nM.

With `CCNC(=O)C(C)(C)c1ccc2c(-c3cc(OC)c(C(=O)NC4CC4)c(OC(F)F)c3)cnn2c1` [Cpd 249, N-cyclopropyl-2-(difluoromethoxy)-4-[6-[2-(ethylamino)-1,1-dimethyl-2-oxo-ethyl]pyrazolo[1,5-a]pyridin-3-yl]-6-methoxy-benzamide], the IC50 against SIK1 is more than 500 nM; at SIK2, more than 500 nM; at SIK3, 10 to 100 nM.

On to `COc1cc(-c2cnc3cc(C(C)(C)N)ccn23)cc(OC)c1C(=O)NCC(F)(F)F` [Cpd 55, 4-[7-(1-amino-1-methyl-ethyl)imidazo[1,2-a]pyridin-3-yl]-2,6-dimethoxy-N-(2,2,2-trifluoroethyl)benzamide], for which the IC50 is more than 500 nM on SIK1, more than 500 nM at SIK2 and 10 to 100 nM at SIK3.

Regarding `COc1cc(-c2cnc3cc(C(C)(C)C#N)ccn23)cc(OC(F)F)c1C(=O)N(C)C1CC1` [Cpd 84, 4-[7-(1-cyano-1-methyl-ethyl)imidazo[1,2-a]pyridin-3-yl]-N-cyclopropyl-2-(difluoromethoxy)-6-methoxy-N-methyl-benzamide], the IC50 against SIK1 was more than 500 nM; on SIK2, more than 500 nM; against SIK3, 100 to 500 nM.

For the molecule `CCN(CC)CC(C)(C)c1ccc2c(-c3cc(OC)c(C(=O)N[C@@H]4C[C@@H]4F)c(OC(F)F)c3)cnn2c1` [Cpd 276, 4-[6-[2-(diethylamino)-1,1-dimethyl-ethyl]pyrazolo[1,5-a]pyridin-3-yl]-2-(difluoromethoxy)-N-[(1R,2S)-2-fluorocyclopropyl]-6-methoxy-benzamide], the IC50 was more than 500 nM on SIK1, more than 500 nM on SIK2 and 10 to 100 nM against SIK3.

Consider `COc1cc(-c2cnc3cc(C(C)(C)N4CCOCC4)ccn23)cc(OC(F)F)c1C(=O)NC1CC1` [Cpd 226, N-cyclopropyl-2-(difluoromethoxy)-6-methoxy-4-[7-(1-methyl-1-morpholino-ethyl)imidazo[1,2-a]pyridin-3-yl]benzamide], for which the IC50 against SIK1 is more than 500 nM; against SIK2, more than 500 nM; on SIK3 it was 10 to 100 nM.

Consider `COc1cc(-c2cnc3cc(C(F)(F)C(=O)O)ccn23)cc(OC(F)F)c1C(=O)NC1CC1` [Cpd 132, 2-[3-[4-(cyclopropylcarbamoyl)-3-(difluoromethoxy)-5-methoxy-phenyl]imidazo[1,2-a]pyridin-7-yl]-2,2-difluoro-acetic acid], for which the IC50 at SIK1 was 100 to 500 nM; against SIK2, 100 to 500 nM; against SIK3, 0.01 to 10 nM.

The values above are taken from patent US12391679B2, “Benzamide-substituted bicyclic imidazo- and pyrazolo-fused -pyridine, -pyrimide, and -pyridazine compounds for treatment of inflammatory diseases” (ONCO3R Therapeutics BV, priority 2019, dated 2025).
